# Assay results published in patent US8962322B2, “Enhancers of induced pluripotent stem cell reprogramming” (City of Hope, priority 2012, dated 2015).
# Legend:
# [1] = tested on: human Nanog promoter; test: Nanog-luc luciferase reporter assay (stably transfected CV1 cells); assay type: cell-based; details: OAC1 1 μM, BIO 2 μM, BIX 2 μM, AzaC 2 μM, Vc 25 μg/ml, Am580 10 nM, tranylcypromine 5 μM, VPA 0.5 mM; two days
# Procedure: Oct4, Sox2, and Nanog form a positive regulatory loop to regulate the expression of each other, and Nanog is considered a downstream target gene of Oct4 and Sox2 (37). Therefore, activation of Nanog promoter was used as a validation assay for the identified compounds. Specifically, the Oct4 promoter-activating compounds were tested to ascertain whether they activate a human
# Nanog promoter-driven luciferase reporter gene using in triplicate luciferase reporter assays.
# (§1) Then the promoter sequences were cloned into pGL4.4-luc-Hyg vector (Promega) to get Oct4-luc or Nanog-luc construct and the fidelity of the Oct4 and Nanog promoter DNA sequences was confirmed by bi-directional sequencing. CV 1 cells were transfected with the Oct4-luc or Nanog-luc constructs and the stably-transfected cells were selected by hygromycine resistance.
# (§2) Luciferase Reporter Assays: The Oct4-luc or Nanog-luc cells were treated with compound OAC 1 or its structural analogs at 1 μM concentration or at indicated concentrations in triplicates. Other compounds used include 2 μM BIO, 2 μM BIX, 2 μM
# (§3) AzaC, 25 μg/ml Vc, 10 nM Am580, 5 μM tranylcypromine, and 0.5 mM VPA. Luciferase reporter assays were performed as described (51) 24 hr after compound treatment or at indicated time points. For Topflash reporter assays, 0.2 μg β-catenin-responsive Topflash reporter gene plasmid was introduced into CV1 cells using trasfection (Bio-Rad). Compounds were added 6 hr after transfection. Luciferase activity was measured 48 hr after compound treatment using the Glo Luciferase Assay System (Promega).
# [2] = tested on: human Oct4 promoter; test: Oct4-luc luciferase reporter assay (stably transfected CV1 cells); assay type: cell-based; details: OAC1 1 μM, BIO 2 μM, BIX 2 μM, AzaC 2 μM, Vc 25 μg/ml, Am580 10 nM, tranylcypromine 5 μM, VPA 0.5 mM; two days
# From the text: A high-throughput screening scheme was designed to identify Oct4 promoter-activating compounds using a luciferase reporter under the control of the human Oct4 promoter (Oct4-luc). […] A stable cell line (Oct4-luc) that expresses luciferase reporter driven by the exogenous Oct4 promoter was established using hygromycin-resistance as a selection marker. These Oct4-luc cells were used for high-throughput screening of a chemical library of 80,000 compounds. The luciferase reporter activity was measured 24 hr after compound treatment. Solvent treatment was included as a negative control.
# as §1
# Compound Screening: The Oct4-luc cells were seeded at 1.75×10^4 cells per well density into 96-well plates. Compounds were added to cells one day after cell seeding at the concentration of 10 μM for 24 hr in the High-Throughput Screening core facility at City of Hope. Compounds that induced luciferase activity 3-fold or more were selected for further validation in both Oct4-luc and Nanog-luc cells.
# as §2, §3
# [3] = tested on: β-catenin-responsive reporter gene Topflash; test: Topflash luciferase reporter assay in CV1 cells (Wnt signaling); assay type: cell-based; details: 1 μM OAC1 or 2 μM BIO, 48 hr
# Procedure: Whether OAC1 regulates major signaling pathways that are critical for embryonic stem cell pluripotency was investigated. […] CV1 cells were transfected with the β-catenin-responsive reporter gene Topflash, and the transfected cells were treated with vehicle control or OAC1 (FIG. 6C). The glycogen synthase kinase 3β (GSK3β) inhibitor BIO was included as a positive control (42).
# as §3
# [4] = day 8 post-infection of reprogramming factors; cited from earlier work
# [5] = tested on: MEFs; details: OSKM, seeding 2.7 × 10^5, day 8, reference (2) Huangfu 2008; cited from earlier work
smiles,measurement,setting,value
"O=C1Nc2cc(Br)ccc2/C1=C1/Nc2ccccc2/C1=N\O [BIO, reference compound]","induction of Nanog-luc, comparison with known reprogramming enhancers (in words)",[1],lower level induction
same,"induction of Oct4-luc, comparison with known reprogramming enhancers (in words)",[2],lower level induction
same,effect on Topflash reporter activity,[3],activated the Topflash reporter potently
CC(/C=C/C(=O)NO)=C\[C@@H](C)C(=O)c1ccc(N(C)C)cc1 [TSA],increase in reprogramming efficiency in iSF1 media,[4],2 fold
"CCCC(CCC)C(=O)O [VPA, valproic acid]","induction of Nanog-luc, comparison with known reprogramming enhancers (in words)",[1],no significant effect
same,Colony numbers,[5],241
same,Reprogramming efficiency,[5],0.089%
same,increase in reprogramming efficiency in iSF1 media,[4],2 fold
same,"induction of Oct4-luc, comparison with known reprogramming enhancers (in words)",[2],no significant effect
